These results are taken from the supplement of paper PMC11061612.

One test relates to SK-MEL-24 (Melanoma). Nature of the test: Bliss excess, mean over the matrix (fraction); higher = more synergy. The method, boiled down:
(§1)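 Bliss excess equals the observed combination effect minus the expected value EA + EB − EA·EB, where EA and EB are the effects of each agent alone. Combination Emax is the second-highest inhibition within the matrix. Inhibition was scaled from CellTiter-Glo 2.0 luminescence, with 0 set by vehicle wells and 1 by blank wells, after 72 hours of two-drug dosing of cells plated in 1536-well plates.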

The test system of test [1] is SUP-HD1 (Hodgkin's Lymphoma). Described as above. The gist of the method: as §1
Test [2] has as its system HT-3 (Cervical Carcinoma). The description is as above. The gist of the method: as §1
Test [3] concerns TOV-21G (Ovarian Carcinoma). Described as above. The method, boiled down:
as §1

Test [4] concerns JJN-3 (Plasma Cell Myeloma). The description is as above. The gist of the method:
as §1

The test system of test [5] is BC-1 (B-Cell Non-Hodgkin's Lymphoma). Described as above. The method, boiled down:
as §1

The subject of test [6] is SW1463 (Colorectal Carcinoma). The test is described as above. The method, boiled down:
as §1

In test [7] the test system is HT-1197 (Bladder Carcinoma). The description is as above. The gist of the method:
as §1

Test [8] has as its system NCI-H2009 (Lung Adenocarcinoma). Described as above. The gist of the method:
as §1

In test [9] the test system is SCC90 (Head and Neck Carcinoma). The description is as above. The method, boiled down:
as §1

The subject of test [10] is C2BBe1 (Colorectal Carcinoma). The test is described as above. The method, boiled down:
as §1

For test [11], the system named is NCI-H1648 (Lung Adenocarcinoma). The test is described as above. The method, boiled down:
as §1

Test [12] deals with CAL-85-1 (Breast Carcinoma). The test can be described thus: combination Emax (second highest fraction inhibited in the dose matrix, 72 h); higher = more inhibition; extreme values may be limits of the assay. The gist of the method:
as §1

The test system of test [13] is TOV-21G (Ovarian Carcinoma). The description is as above. The gist of the method:
as §1

For test [14], the system named is KNS-62 (Squamous Cell Lung Carcinoma). The test is described as above. The gist of the method:
as §1

The subject of test [15] is NCI-H1944 (Lung Adenocarcinoma). The test is described as above. The gist of the method:
as §1

For test [16], the system named is NCI-H2023 (Non-Small Cell Lung Carcinoma). The description is as above. The gist of the method: as §1
The subject of test [17] is MRK-nu-1 (Breast Carcinoma). The test is described as above. The gist of the method:
as §1

Test [18] has as its system L-363 (Plasma Cell Myeloma). Described as above. The gist of the method:
as §1

For test [19], the system named is NCI-H1648 (Lung Adenocarcinoma). Described as above. The method, boiled down: as §1

On to `Cc1c2c(nn1C)CSCc1cc(n(C)n1)CSc1cc(c3ccccc3c1)OCCCc1c(C(=O)O)n(C)c3c-2c(Cl)ccc13` [AZD5991] + C[C@@H]1COCCN1C2=NC(=NC(=C2)C3(CC3)[S@](=N)(=O)C)C4=C5C=CNC5=NC=C4 [AZD6738] (first compound max 1 µM, 7x7, partner max 10 µM), for which the Bliss excess was 0.0025 with SK-MEL-24 (Melanoma); -0.0279 in test [1]; 0.08 in [2]; 0.0322 in test [3]; -0.0071 in test [4]; -0.0396 in [5]. For the same compound, the Bliss excess in test [6] is -0.023; in test [7], -0.104; in [8], 0.0199; in [9] it was 0.0141; in [10] it was -0.0093; in [11], 0.0052. Further, the “combination Emax” value was found to be 0.584 in test [12]; 0.798 in test [13]; 0.491 in [14]; 0.928 in [15]; 0.814 in test [16]; 1 in test [17]. In addition, the results for the “combination Emax” value in [18] and in [19] were 1 and 0.865, respectively.

For `Cc1c2c(nn1C)CSCc1cc(n(C)n1)CSc1cc(c3ccccc3c1)OCCCc1c(C(=O)O)n(C)c3c-2c(Cl)ccc13` [AZD5991] + C[C@@H](Nc1cc(F)cc(F)c1)c1cc(C(=O)N(C)C)cc2c(=O)cc(N3CCOCC3)oc12 [AZD8186] (first compound max 1 µM, 7x7, partner max 3 µM), the Bliss excess was -0.0081 in the test with SK-MEL-24 (Melanoma); -0.0414 in test [1]; 0.0217 in test [2]; -0.0139 in test [3]; -0.0448 in test [4]; -0.0042 in [5]. For the same compound, the Bliss excess was -0.0398 in test [6]; -0.0055 in [7]; -0.0076 in test [8]; 0.0186 in [9]; -0.026 in test [10]; -0.0508 in test [11]. Moreover, the “combination Emax” value in test [12] is 0.243; in test [13] it was 0.253; in test [14], 0.17; in [15], 0.282; in test [16], 0.377; in test [17], 1. Also, the entries for the “combination Emax” value in [18] and in test [19] were 1 and 0.844, respectively.

As to `Cc1c2c(nn1C)CSCc1cc(n(C)n1)CSc1cc(c3ccccc3c1)OCCCc1c(C(=O)O)n(C)c3c-2c(Cl)ccc13` [AZD5991] + Cn1cnc2c(F)c(Nc3ccc(Br)cc3Cl)c(C(=O)NOCCO)cc21 [Selumetinib] (first compound max 1 µM, 7x7, partner max 3 µM), the Bliss excess was 0.0006 with SK-MEL-24 (Melanoma); -0.011 in test [1]; 0.0926 in test [2]; 0.0121 in test [3]; 0.0114 in [4]; 0.012 in [5]. Besides, the Bliss excess is -0.0352 in test [6]; -0.0375 in test [7]; 0.0176 in test [8]; 0.0581 in test [9]; -0.0033 in [10]; 0.0396 in test [11]. In addition, the “combination Emax” value in test [12] was determined as 0.584; in test [13], 0.335; in test [14], 0.339; in test [15], 0.304; in test [16] it was 0.294; in test [17], 1. In addition, the “combination Emax” value turned out to be 1 in test [18] and 0.844 in test [19].

For `NC1(C(=O)N[C@@H](CCO)c2ccc(Cl)cc2)CCN(c2ncnc3[nH]ccc23)CC1` [Capivasertib] + CC(=O)c1c(C)c2cnc(Nc3ccc(N4CCNCC4)cn3)nc2n(C2CCCC2)c1=O [Palbociclib] (first compound max 10 µM, 7x7, partner max 10 µM), the Bliss excess in the test on SK-MEL-24 (Melanoma) is -0.0514; in [1] it was -0.0643; in [2] it was -0.0182; in test [3] it was -0.0466; in test [4], -0.0257; in test [5], 0.0026. The Bliss excess in test [6] is -0.0837; in test [7] it was 0.0024; in test [8] it was -0.0054; in [9] it was -0.0256; in test [10], -0.0094; in test [11], -0.0039. Besides, the “combination Emax” value was 0.203 in [12]; 0.754 in test [13]; 0.599 in test [14]; 0.798 in test [15]; 0.402 in test [16]; 0.382 in test [17]. The “combination Emax” value in test [18] stood at 0.509; in test [19], 0.567.

Take `NC1(C(=O)N[C@@H](CCO)c2ccc(Cl)cc2)CCN(c2ncnc3[nH]ccc23)CC1` [Capivasertib] + CC(C)n1c(=O)n(C)c2cnc3cc(F)c(-c4ccc(OCCCN5CCCCC5)nc4)cc3c21 [AZD1390] (first compound max 10 µM, 7x7, partner max 0.3 µM): the Bliss excess in the test on SK-MEL-24 (Melanoma) was -0.0251; in test [1], -0.136; in test [2], -0.035; in [3], -0.0076; in test [4], -0.0105; in [5], -0.0175. For the same compound, the Bliss excess was -0.0196 in test [6]; -0.0388 in test [7]; -0.0648 in test [8]; -0.0484 in test [9]; -0.0856 in [10]; -0.0077 in [11]. Also, the “combination Emax” value in test [12] turned out to be 0.266; in test [13], 0.723; in [14], 0.547; in test [15] it was 0.429; in test [16], 0.409; in test [17], 0.576. In addition, the results for the “combination Emax” value in test [18] and in [19] were 0.465 and 0.585, respectively.

Take `NC1(C(=O)N[C@@H](CCO)c2ccc(Cl)cc2)CCN(c2ncnc3[nH]ccc23)CC1` [Capivasertib] + CCN(CCO)CCCOc1ccc2c(Nc3cc(CC(=O)Nc4cccc(F)c4)[nH]n3)ncnc2c1 [AZD2811] (first compound max 10 µM, 7x7, partner max 1 µM): the Bliss excess was -0.0891 in the test on SK-MEL-24 (Melanoma); -0.0307 in test [1]; -0.0327 in test [2]; 0.0123 in test [3]; -0.0148 in test [4]; -0.0383 in test [5]. In addition, the Bliss excess in [6] is -0.0239; in test [7] it was 0.016; in test [8] it was 0.0001; in test [9], 0.0332; in [10], -0.0382; in [11], -0.0419. Moreover, the “combination Emax” value in test [12] came to 0.203; in test [13], 0.794; in test [14], 0.561; in test [15], 0.628; in test [16], 0.412; in test [17], 0.742. For the same compound, the “combination Emax” value turned out to be 0.549 in [18] and 0.525 in [19].

Consider `NC1(C(=O)N[C@@H](CCO)c2ccc(Cl)cc2)CCN(c2ncnc3[nH]ccc23)CC1` [Capivasertib] + COc1nnc2ccc(N3CCC(c4ccc(OCCN5CCN(C)C(=O)[C@H]5C)cc4)CC3)nn12 [AZD5153] (first compound max 10 µM, 7x7, partner max 1 µM), for which the Bliss excess in the test with SK-MEL-24 (Melanoma) was 0.0073; in test [1], -0.047; in test [2], -0.0281; in test [3] it was 0.0011; in test [4], -0.0242; in test [5] it was -0.0042. Further, the Bliss excess in test [6] was -0.0021; in [7] it was 0.0255; in test [8], 0.0374; in test [9], 0.0079; in test [10], -0.0365; in [11], -0.0694. Besides, the “combination Emax” value in [12] was 0.434; in test [13], 0.892; in test [14], 0.809; in test [15] it was 0.842; in [16] it was 0.362; in [17], 0.587. Besides, the “combination Emax” value in test [18] turned out to be 0.879; in test [19] it was 0.753.
